The values below come from US10881668B2, “Acetamide thienotriazolodiazepines and uses thereof” (Dana-Farber Cancer Institute, Inc., priority 2015, dated 2021).

The conditions of data set [1]: male, CD1, mouse, in vivo.
Procedure: (§4) Pharmacokinetic parameters were determined by administration of a candidate bromodomain inhibitor to male CD1 mice. Intravenous doses were delivered at 5 mg/kg, and oral doses at 10 mg/kg (N=3). […] The compound concentration in mouse blood was monitored over 24-hour time period to check the compound concentration in blood at 5 min, 30 min, 1 hour, 2 hours, 6 hours, 12 hours, and 24 hour via a series bleeding.
A further data set in a line: in vivo. The settings on record: male, CD1, mouse, iv, 1 mg/kg.
The target in a further data set is BRDT(1) (Homo sapiens (Human), UniProt Q58F21). In words: AlphaScreen acetyl-histone binding assay, BRDT(1). The settings on record: H4K5acK8acK12acK16ac peptide. The method, then:
(§1) The IC50 values of the compounds were determined by ALPHASCREENING assays for BRD4 and BRDT protein. NMC797 cell line is a BRD4 dependant NUT midline carcinoma line.
(§2) Acetyl-Histone Binding Assay.
(§3) Assays were performed as described previously with minor modifications from the manufacturer's protocol (PerkinElmer, USA). All reagents were diluted in 50 mM HEPES, 100 mM NaCl, 0.1% BSA, pH 7.4 supplemented with 0.05% CHAPS and allowed to equilibrate to room temperature prior to addition to plates. A 24-point 1:2 serial dilution of the ligands was prepared over the range of 150-0 μM and 4 μl transferred to low-volume 384-well plates (PROXIPLATE™-384 Plus, PerkinElmer, USA), followed by 4 μl of HIS-tagged protein (BRD4/1, 250 nM, BRD4/2 and CREBBP, 2000 nM). […] Plates were sealed and incubated for a further 30 minutes, before the addition of 4 μl of streptavidin-coated donor beads (25 μg/ml) and 4 μl nickel chelate acceptor beads (25 μg/ml) under low light conditions. Plates were foil-sealed to protect from light, incubated at room temperature for 60 minutes and read on a PHERASTAR FS plate reader (BMG Labtech, Germany) using an ALPHASCREEN 680 excitation/570 emission filter set. IC50 values were calculated in Prism 5 ([…] Software, USA) after normalization against corresponding DMSO controls and are given as the final concentration of compound in the 20 μl reaction volume.
(In general: Bead proximity is the source of the signal in Alpha formats.)

In data set [2] the test system is NMC797 cell line (BRD4 dependant NUT midline carcinoma line). Briefly: Cell proliferation assay (ATP content), NMC797. The class given is cell-based. To be noted: 48-hour incubation. The method, then: as §1
Cell Proliferation Assay.
Cells were seeded into white, 384-well microtiter plates (Nunc) at 500 cells per well in a total volume of 50 μL media. The 797, TT, and TE10 cells were grown in DMEM containing 1% penicillin/streptomycin and 10% FBS. The Per403 cells were grown in DMEM containing 1% penicillin/streptomycin and 20% FBS. Compounds were delivered to microtiter assay plates by robotic pin transfer (PerkinElmer JANUS equipped with a V&P Scientific 100 nL pin tool). Following a 48-hour incubation at 37° C., cells were lysed and wells were assessed for total ATP content using a commercial proliferation assay (Cell TITERGLO; Promega). Replicate measurements were analyzed with respect to dose and estimates of IC50 were calculated by logistic regression ([…] PRISM).

A short description of data set [3]: Pharmacokinetics in male CD1 mice, IV administration. To be noted: whole blood; for AUC(0-inf) / AUC(0-t) / MRT inf / Vd / clearance / half-life: male, CD1, mouse, iv, 5 mg/kg.
Procedure: as §4
A short description of data set [4]: Pharmacokinetics in male CD1 mice, oral administration. The settings on record: for F: oral 10 mg/kg (IV 5 mg/kg).
Procedure: as §4
In the next data set the target is BRD4(1) (Homo sapiens (Human), UniProt O60885). In words: AlphaScreen acetyl-histone binding assay, BRD4(1). To be noted: H4K5acK8acK12acK16ac peptide. The method, then: as §1, §2, §3
Where [5] appears, read: male CD1 mice, oral 10 mg/kg, whole blood, N=3.
The mark [6] stands for this setting: male, CD1, mouse, whole blood, po, 10 mg/kg.

Where two headings read alike, the source gives them in different places.

Procedure for in vivo: as §4

By half-life is commonly meant the time needed for the level to fall by half in the phase considered. Low values mean fast loss, high ones slow loss. In data set [1], `Cc1sc2c(c1C)C(c1ccc(Cl)cc1)=N[C@@H](CC(=O)NCC1CCN(CCN(C)C)CC1)c1nnc(C)n1-2` [Compound 601] had an F of 4%. The half-life in the data set “in vivo” was 11.7 h.

Turning to `Cc1sc2c(c1C)C(c1ccc(Cl)cc1)=N[C@@H](CC(=O)N1CCn3c(nnc3C(F)(F)F)C1)c1nnc(C)n1-2` [Compound 605], in data set [1], the F is 6%. The molecule also had a half-life in the data set “in vivo” of 0.5 h.

In turn, `Cc1sc2c(c1C)C(c1ccc(Cl)cc1)=N[C@@H](CC(=O)NCCCN1CCCC1)c1nnc(C)n1-2` [Compound 604] registered a F in data set [1] of 7%. Also, the half-life in “in vivo” was 2 h.

Molecule `Cc1sc2c(c1C)C(c1ccc(Cl)cc1)=N[C@@H](CC(=O)NCCCN1CCC(N3CCCCC3)CC1)c1nnc(C)n1-2` [Compound 602] registered a F in data set [1] of 2%. Also, the half-life in the data set “in vivo” was 21 h.

In general, IC50 refers to the concentration needed to halve the response being measured. Higher therefore signals weaker potency in that assay. Regarding `Cc1sc2c(c1C)C(c1ccc(Cl)cc1)=N[C@@H](CC(=O)NCCC(F)F)c1nnc(C)n1-2` [Compound 505], the half-inhibitory concentration (IC50) stood at 0.075 µM at BRDT(1) and 0.093 µM in data set [2] (NMC-797, NMC797 cells).

The term Cmax denotes the maximum level reached in the sampled fluid or tissue. In general, Tmax refers to the time at which the peak concentration occurs. In the case of `Cc1sc2c(c1C)C(c1ccc(Cl)cc1)=N[C@@H](CC(=O)OC(C)(C)C)c1nnc(C)n1-2` [JQ1, reference compound], the IC50 in data set [2] (NMC797 cells) came out at 0.021 µM. For the same molecule, in data set [3] (male CD1 mice, IV 5 mg/kg, N=3), the AUCINF came out at 2130 ng·h/mL, the AUClast was determined as 2130 ng·h/mL, the CL is 39.2 mL/min/kg and the MRTINF came to 0.861 h. Besides, in data set [4] (setting [5]), the AUCINF turned out to be 2090 ng·h/mL, the AUClast amounted to 2040 ng·h/mL, the Cmax turned out to be 1180 ng/mL and the Tmax turned out to be 0.250 h.

As to `Cc1sc2c(c1C)C(c1ccc(Cl)cc1)=N[C@@H](CC(=O)NCC(C)(C)O)c1nnc(C)n1-2` [Compound 503], the IC50 at BRDT(1) turned out to be 0.089 µM; on BRD4(1) it was 0.044 µM; in data set [2] (NMC-797, NMC797 cells), 0.042 µM.

On to `Cc1sc2c(c1C)C(c1ccc(Cl)cc1)=N[C@@H](CC(=O)NCC(F)F)c1nnc(C)n1-2` [Compound 504], for which the IC50 is 0.069 µM on BRDT(1) and 0.054 µM in data set [2] (NMC-797, NMC797 cells).

In turn, `Cc1sc2c(c1C)C(c1ccc(Cl)cc1)=N[C@@H](CC(=O)N1CCC(N3CCCCC3)CC1)c1nnc(C)n1-2` [Compound 603] came in with a F in data set [1] of 20%. The half-life in “in vivo” was 1 h.

As a reminder, the AUC(0-inf) is total exposure, with the tail of the curve extrapolated. Read a low AUC(0-inf) as low exposure. The AUC(0-t) is exposure summed from dosing to a finite time, without extrapolation to infinity. As a reminder, the MRT inf is the average time that molecules of a dose stay in the body. A word on the Vd: it is the apparent volume that relates the amount in the body to the concentration in plasma or blood. A high value points to wide distribution into tissue. A word on the clearance: it is a measure of how efficiently the substance is removed, as volume per time. Higher therefore signals efficient removal. For the molecule `Cc1sc2c(c1C)C(c1ccc(Cl)cc1)=N[C@@H](CC(=O)NC[C@H](C)O)c1nnc(C)n1-2` [Compound 501], the IC50 at BRDT(1) turned out to be 0.082 µM. It took 0.03 µM to reach half-maximal inhibition in data set [2] (NMC-797, NMC797 cells) (IC50). In data set [3], this molecule showed an area under the curve AUC(0-inf) of 2390 ng·h/mL, an AUC(0-t) of 2380 ng·h/mL, an MRT inf of 0.718 h and a Vd of 1.54 L/kg. In data set [3], the clearance is 36.7 mL/min/kg and the half-life is 1.51 h. Further, the F in data set [4] (male CD1 mice, N=3) turned out to be 53.7%. Also, in data set [4] (setting [6]), the AUC(0-inf) came to 2570 ng·h/mL, the AUC(0-t) was 2520 ng·h/mL, the peak level (Cmax) was 1260 ng/mL and the Tmax worked out at 0.417 h. Besides, the half-life in data set [4] (setting [6]) was 1.54 h.

`Cc1sc2c(c1C)C(c1ccc(Cl)cc1)=N[C@@H](CC(=O)NC[C@@H](C)O)c1nnc(C)n1-2` [Compound 502]: the IC50 on BRDT(1) was determined as 0.061 µM. Moreover, inhibition in data set [2] (NMC-797, NMC797 cells) was half-maximal at 0.029 µM (IC50). In data set [3], the AUC(0-inf) came to 2960 ng·h/mL, the AUC(0-t) was determined as 2940 ng·h/mL, the MRT inf came out at 0.882 h and the Vd was determined as 1.48 L/kg. Also, in data set [3], the clearance is 29.5 mL/min/kg and the half-life was 1.06 h. In addition, in data set [4] (male CD1 mice, N=3), the F is reported as 53.4%. Further, in data set [4] (setting [6]), the AUC(0-inf) came to 3160 ng·h/mL, the AUC(0-t) is 3100 ng·h/mL, the concentration peaked (Cmax) at 1430 ng/mL and the Tmax was found to be 0.5 h. The half-life in data set [4] (setting [6]) was 1.37 h.
